System: SF3B1 K700E mutant cell derived from the HEK293FT cells
Test: GCV-concentration-dependent cell death, MTT assay, lentiviral HSV-TK (BRD9 intron) in genome-edited cells
Format: cell-based
Conditions: SF3B1 K700E mutant cell (one allele) vs SF3B1 normal cell; GCV 100 to 0.16 μg/mL, 48 hours; FIG. 7
Experimental: In this example, in order to verify the toxicity of a suicide gene in a cell having an SF3B1 K700E mutation in one allele in a genome, as in actual cancer cells, HEK293FT cells were genome-edited and an SF3B1 K700E mutant cell strain was established.
Meanwhile, an HSV-TK expression lentiviral vector containing the BRD9 intron was prepared using the pHR vector shown in SEQ ID NO: 11 (FIGS. 3A and 3B). The lentiviral vector was introduced into the SF3B1 K700E mutant strain and an SF3B1 normal strain as a control, and the number of cells killed by the addition of GCV was quantified using the MTT assay method. A detailed procedure will be shown below. […]
The solubilized solution of the MTT cell number measuring kit (Nacalai Tesque Inc.) was added into the HEK293FT cells at 100 μL/well, and the mixture was incubated at 37° C. After 20 hours, the absorbance at 570 nm (reference wavelength: 655 nm) was measured with the microplate reader.
The number of viable cells was calculated based on a standard curve using the above-mentioned serially diluted HEK293FT cells, and the viability was shown as a ratio when the number of cells in the GCV-free group was 100%. Further, the efficacy was evaluated by comparing the cytotoxicity due to GCV addition in the SF3B1 normal cell with the cytotoxicity of the SF3B1 K700E mutant cell. […]

With “suicide gene containing the BRD9 intron: SFFV promoter, HSV-TK inserted with an intron of BRD9 containing no normal acceptor sequence, puromycin resistance gene linked by P2A” the “viability (ratio when the number of cells in the GCV-free group was 100%)” value was “viability lower than that of the SF3B1 normal cell”.
